According to ChEMBL document CHEMBL4507267 (2021):

What was measured:
[1] = target: Activin receptor type-2A (Homo sapiens) (UniProt P27037); conditions: Compound concentration 1000.0 nM
[2] = tested on: ALK tyrosine kinase receptor (Homo sapiens), Q9UM73 [L1196M]; conditions: Compound concentration 1000.0 nM
[3] = target: Mitogen-activated protein kinase kinase kinase 5 (Homo sapiens) (UniProt Q99683); conditions: Compound concentration 1000.0 nM
[4] = target: Aurora kinase B (Homo sapiens) (UniProt Q96GD4); conditions: Compound concentration 1000.0 nM
[5] = target: Calcium/calmodulin-dependent protein kinase type 1B (Homo sapiens) (UniProt Q6P2M8); conditions: Compound concentration 1000.0 nM
[6] = target: Calcium/calmodulin-dependent protein kinase type II subunit delta (Homo sapiens) (UniProt Q13557); conditions: Compound concentration 1000.0 nM
[7] = target: Calcium/calmodulin-dependent protein kinase type II subunit gamma (Homo sapiens) (UniProt Q13555); conditions: Compound concentration 1000.0 nM
[8] = target: Cyclin-dependent kinase 19 (Homo sapiens) (UniProt Q9BWU1); conditions: Compound concentration 1000.0 nM
[9] = target: Cyclin-dependent kinase 3 (Homo sapiens) (UniProt Q00526); conditions: Compound concentration 1000.0 nM
[10] = target: Macrophage colony-stimulating factor 1 receptor (Homo sapiens) (UniProt P07333); conditions: Compound concentration 1000.0 nM
[11] = target: Epidermal growth factor receptor (Homo sapiens) (UniProt P00533); conditions: Compound concentration 1000.0 nM
[12] = tested on: Epidermal growth factor receptor (Homo sapiens), P00533 [G719S]; conditions: Compound concentration 1000.0 nM
[13] = target: Ephrin type-A receptor 3 (Homo sapiens) (UniProt P29320); conditions: Compound concentration 1000.0 nM
[14] = target: Ephrin type-A receptor 8 (Homo sapiens) (UniProt P29322); conditions: Compound concentration 1000.0 nM
[15] = target: Mitogen-activated protein kinase 6 (Homo sapiens) (UniProt Q16659); conditions: Compound concentration 1000.0 nM
[16] = target: Fibroblast growth factor receptor 1 (Homo sapiens) (UniProt P11362); conditions: Compound concentration 1000.0 nM
[17] = tested on: Receptor-type tyrosine-protein kinase FLT3 (Homo sapiens), P36888 [D835Y]; conditions: Compound concentration 1000.0 nM
[18] = tested on: Receptor-type tyrosine-protein kinase FLT3 (Homo sapiens), P36888 [N841I]; conditions: Compound concentration 1000.0 nM
[19] = target: Glycogen synthase kinase-3 beta (Homo sapiens) (UniProt P49841); conditions: Compound concentration 1000.0 nM
[20] = target: Tyrosine-protein kinase HCK (Homo sapiens) (UniProt P08631); conditions: Compound concentration 1000.0 nM
[21] = tested on: Mast/stem cell growth factor receptor Kit (Homo sapiens), P10721 [A829P]; conditions: Compound concentration 1000.0 nM
[22] = target: Serine/threonine-protein kinase LATS2 (Homo sapiens) (UniProt Q9NRM7); conditions: Compound concentration 1000.0 nM
[23] = target: Mitogen-activated protein kinase kinase kinase kinase 2 (Homo sapiens) (UniProt Q12851); conditions: Compound concentration 1000.0 nM
[24] = target: Serine/threonine-protein kinase MARK2 (Homo sapiens) (UniProt Q7KZI7); conditions: Compound concentration 1000.0 nM
[25] = target: Dual specificity mitogen-activated protein kinase kinase 1 (Homo sapiens) (UniProt Q02750); conditions: Compound concentration 1000.0 nM
[26] = target: Serine/threonine-protein kinase 26 (Homo sapiens) (UniProt Q9P289); conditions: Compound concentration 1000.0 nM
[27] = target: Cyclin-dependent kinase 2 homolog (Plasmodium falciparum (isolate 3D7)) (UniProt P61075); conditions: Compound concentration 1000.0 nM
[28] = tested on: Phosphatidylinositol 4,5-bisphosphate 3-kinase catalytic subunit alpha isoform (Homo sapiens), P42336 [I800L]; conditions: Compound concentration 1000.0 nM
[29] = tested on: Phosphatidylinositol 4,5-bisphosphate 3-kinase catalytic subunit alpha isoform (Homo sapiens), P42336 [M1043I]; conditions: Compound concentration 1000.0 nM
[30] = target: Phosphatidylinositol 4,5-bisphosphate 3-kinase catalytic subunit delta isoform (Homo sapiens) (UniProt O00329); conditions: Compound concentration 1000.0 nM
[31] = target: Phosphatidylinositol 4-phosphate 5-kinase type-1 gamma (Homo sapiens) (UniProt O60331); conditions: Compound concentration 1000.0 nM
[32] = target: Serine/threonine-protein kinase N2 (Homo sapiens) (UniProt Q16513); conditions: Compound concentration 1000.0 nM
[33] = target: Protein kinase C eta type (Homo sapiens) (UniProt P24723); conditions: Compound concentration 1000.0 nM
[34] = target: Serine/threonine-protein kinase D1 (Homo sapiens) (UniProt Q15139); conditions: Compound concentration 1000.0 nM
[35] = target: Protein-tyrosine kinase 2-beta (Homo sapiens) (UniProt Q14289); conditions: Compound concentration 1000.0 nM
[36] = target: Ribosomal protein S6 kinase beta-1 (Homo sapiens) (UniProt P23443); conditions: Compound concentration 1000.0 nM
[37] = target: Serine/threonine-protein kinase SIK1 (Homo sapiens) (UniProt P57059); conditions: Compound concentration 1000.0 nM
[38] = target: SRSF protein kinase 2 (Homo sapiens) (UniProt P78362); conditions: Compound concentration 1000.0 nM
[39] = target: Tyrosine-protein kinase receptor Tie-1 (Homo sapiens) (UniProt P35590); conditions: Compound concentration 1000.0 nM
[40] = target: Tyrosine-protein kinase TXK (Homo sapiens) (UniProt P42681); conditions: Compound concentration 1000.0 nM
[41] = target: Wee1-like protein kinase (Homo sapiens) (UniProt P30291); conditions: Compound concentration 1000.0 nM
[42] = target: 5-hydroxytryptamine receptor 2C (Homo sapiens) (UniProt P28335); conditions: Compound concentration 10.0 uM
[43] = target: Histamine H4 receptor (Homo sapiens) (UniProt Q9H3N8); conditions: Compound concentration 10.0 uM
[44] = target: Alpha-1A adrenergic receptor (Homo sapiens) (UniProt P35348); conditions: Compound concentration 10.0 uM
[45] = target: Beta-2 adrenergic receptor (Homo sapiens) (UniProt P07550); conditions: Compound concentration 10.0 uM
Chain of Beta-2 adrenergic receptor (Homo sapiens) (P07550 whole entry, looked up): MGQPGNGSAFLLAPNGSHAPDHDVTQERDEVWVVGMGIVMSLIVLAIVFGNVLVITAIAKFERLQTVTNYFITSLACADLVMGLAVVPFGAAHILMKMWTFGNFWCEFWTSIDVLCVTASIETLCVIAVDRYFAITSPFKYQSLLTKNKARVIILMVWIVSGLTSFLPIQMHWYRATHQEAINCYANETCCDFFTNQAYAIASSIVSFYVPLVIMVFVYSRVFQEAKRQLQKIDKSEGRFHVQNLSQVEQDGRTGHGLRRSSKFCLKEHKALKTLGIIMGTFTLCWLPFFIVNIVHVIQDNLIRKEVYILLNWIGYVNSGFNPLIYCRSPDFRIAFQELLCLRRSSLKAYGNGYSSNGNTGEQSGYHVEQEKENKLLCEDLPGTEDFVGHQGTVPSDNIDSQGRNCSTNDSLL

Chain of Calcium/calmodulin-dependent protein kinase type 1B (Homo sapiens) (Q6P2M8 whole entry): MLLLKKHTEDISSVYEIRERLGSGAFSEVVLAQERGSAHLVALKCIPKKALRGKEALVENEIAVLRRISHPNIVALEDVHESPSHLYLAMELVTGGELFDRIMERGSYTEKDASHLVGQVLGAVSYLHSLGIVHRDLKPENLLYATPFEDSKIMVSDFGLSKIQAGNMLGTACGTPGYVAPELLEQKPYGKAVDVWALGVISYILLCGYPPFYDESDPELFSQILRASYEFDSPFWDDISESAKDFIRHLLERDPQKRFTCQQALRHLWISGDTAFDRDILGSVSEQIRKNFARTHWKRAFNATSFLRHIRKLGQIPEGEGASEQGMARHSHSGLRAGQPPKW
Chain of Mitogen-activated protein kinase 6 (Homo sapiens) (Q16659 whole entry): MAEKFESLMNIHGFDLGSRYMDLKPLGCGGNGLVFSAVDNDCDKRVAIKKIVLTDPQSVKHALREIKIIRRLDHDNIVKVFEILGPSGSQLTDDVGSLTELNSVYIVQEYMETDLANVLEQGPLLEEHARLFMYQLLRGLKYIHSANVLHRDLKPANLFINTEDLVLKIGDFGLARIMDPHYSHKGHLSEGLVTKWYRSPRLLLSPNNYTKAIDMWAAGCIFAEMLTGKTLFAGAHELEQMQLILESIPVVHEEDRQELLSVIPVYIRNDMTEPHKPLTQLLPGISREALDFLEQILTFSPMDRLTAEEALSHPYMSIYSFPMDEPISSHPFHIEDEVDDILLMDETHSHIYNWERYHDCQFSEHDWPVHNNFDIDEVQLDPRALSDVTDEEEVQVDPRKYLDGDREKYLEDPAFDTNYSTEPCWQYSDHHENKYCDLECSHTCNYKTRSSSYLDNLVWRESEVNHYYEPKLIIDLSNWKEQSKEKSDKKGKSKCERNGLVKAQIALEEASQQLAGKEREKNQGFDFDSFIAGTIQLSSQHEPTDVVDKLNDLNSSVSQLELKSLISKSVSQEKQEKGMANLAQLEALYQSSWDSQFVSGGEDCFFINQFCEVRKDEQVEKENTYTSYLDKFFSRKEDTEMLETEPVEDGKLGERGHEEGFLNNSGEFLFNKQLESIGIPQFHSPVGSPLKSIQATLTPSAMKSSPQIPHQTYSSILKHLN
Chain of Serine/threonine-protein kinase D1 (Homo sapiens) (Q15139 whole entry): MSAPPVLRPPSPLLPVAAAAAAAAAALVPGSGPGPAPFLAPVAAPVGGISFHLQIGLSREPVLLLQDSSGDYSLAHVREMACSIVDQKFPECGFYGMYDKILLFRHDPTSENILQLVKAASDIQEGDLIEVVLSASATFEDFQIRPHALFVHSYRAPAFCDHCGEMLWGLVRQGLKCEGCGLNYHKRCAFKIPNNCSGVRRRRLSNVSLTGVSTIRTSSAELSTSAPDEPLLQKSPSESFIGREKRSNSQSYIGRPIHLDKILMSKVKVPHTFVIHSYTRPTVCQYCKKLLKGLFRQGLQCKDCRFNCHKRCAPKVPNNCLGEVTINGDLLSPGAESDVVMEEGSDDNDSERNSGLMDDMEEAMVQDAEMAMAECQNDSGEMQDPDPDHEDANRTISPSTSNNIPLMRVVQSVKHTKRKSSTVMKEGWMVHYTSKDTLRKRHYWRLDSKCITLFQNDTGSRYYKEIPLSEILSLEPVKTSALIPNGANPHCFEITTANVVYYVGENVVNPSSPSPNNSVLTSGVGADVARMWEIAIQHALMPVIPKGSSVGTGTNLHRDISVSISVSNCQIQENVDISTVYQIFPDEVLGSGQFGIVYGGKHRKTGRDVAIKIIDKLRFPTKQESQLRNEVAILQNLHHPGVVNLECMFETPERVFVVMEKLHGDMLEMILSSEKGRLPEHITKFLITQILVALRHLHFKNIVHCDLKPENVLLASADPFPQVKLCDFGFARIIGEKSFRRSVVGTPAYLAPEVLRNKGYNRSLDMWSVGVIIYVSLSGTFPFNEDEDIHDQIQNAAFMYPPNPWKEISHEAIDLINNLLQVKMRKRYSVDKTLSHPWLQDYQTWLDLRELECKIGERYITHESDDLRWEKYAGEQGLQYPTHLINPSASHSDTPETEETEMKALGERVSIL
Chain of Calcium/calmodulin-dependent protein kinase type II subunit gamma (Homo sapiens) (Q13555 whole entry): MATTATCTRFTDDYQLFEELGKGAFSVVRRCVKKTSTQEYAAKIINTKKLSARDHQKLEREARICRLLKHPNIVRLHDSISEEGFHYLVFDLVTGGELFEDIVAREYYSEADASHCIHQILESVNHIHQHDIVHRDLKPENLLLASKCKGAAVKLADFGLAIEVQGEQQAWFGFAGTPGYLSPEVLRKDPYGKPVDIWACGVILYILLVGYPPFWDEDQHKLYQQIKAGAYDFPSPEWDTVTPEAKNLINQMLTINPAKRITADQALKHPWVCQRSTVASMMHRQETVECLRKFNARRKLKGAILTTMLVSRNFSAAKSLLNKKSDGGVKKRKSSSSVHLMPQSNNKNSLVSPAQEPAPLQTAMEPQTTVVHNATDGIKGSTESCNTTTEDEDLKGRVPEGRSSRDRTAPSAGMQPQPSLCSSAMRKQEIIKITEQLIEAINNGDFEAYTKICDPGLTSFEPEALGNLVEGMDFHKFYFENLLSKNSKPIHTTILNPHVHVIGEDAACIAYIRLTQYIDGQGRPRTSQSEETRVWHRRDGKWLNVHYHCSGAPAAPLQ
Chain of Serine/threonine-protein kinase LATS2 (Homo sapiens) (Q9NRM7 whole entry): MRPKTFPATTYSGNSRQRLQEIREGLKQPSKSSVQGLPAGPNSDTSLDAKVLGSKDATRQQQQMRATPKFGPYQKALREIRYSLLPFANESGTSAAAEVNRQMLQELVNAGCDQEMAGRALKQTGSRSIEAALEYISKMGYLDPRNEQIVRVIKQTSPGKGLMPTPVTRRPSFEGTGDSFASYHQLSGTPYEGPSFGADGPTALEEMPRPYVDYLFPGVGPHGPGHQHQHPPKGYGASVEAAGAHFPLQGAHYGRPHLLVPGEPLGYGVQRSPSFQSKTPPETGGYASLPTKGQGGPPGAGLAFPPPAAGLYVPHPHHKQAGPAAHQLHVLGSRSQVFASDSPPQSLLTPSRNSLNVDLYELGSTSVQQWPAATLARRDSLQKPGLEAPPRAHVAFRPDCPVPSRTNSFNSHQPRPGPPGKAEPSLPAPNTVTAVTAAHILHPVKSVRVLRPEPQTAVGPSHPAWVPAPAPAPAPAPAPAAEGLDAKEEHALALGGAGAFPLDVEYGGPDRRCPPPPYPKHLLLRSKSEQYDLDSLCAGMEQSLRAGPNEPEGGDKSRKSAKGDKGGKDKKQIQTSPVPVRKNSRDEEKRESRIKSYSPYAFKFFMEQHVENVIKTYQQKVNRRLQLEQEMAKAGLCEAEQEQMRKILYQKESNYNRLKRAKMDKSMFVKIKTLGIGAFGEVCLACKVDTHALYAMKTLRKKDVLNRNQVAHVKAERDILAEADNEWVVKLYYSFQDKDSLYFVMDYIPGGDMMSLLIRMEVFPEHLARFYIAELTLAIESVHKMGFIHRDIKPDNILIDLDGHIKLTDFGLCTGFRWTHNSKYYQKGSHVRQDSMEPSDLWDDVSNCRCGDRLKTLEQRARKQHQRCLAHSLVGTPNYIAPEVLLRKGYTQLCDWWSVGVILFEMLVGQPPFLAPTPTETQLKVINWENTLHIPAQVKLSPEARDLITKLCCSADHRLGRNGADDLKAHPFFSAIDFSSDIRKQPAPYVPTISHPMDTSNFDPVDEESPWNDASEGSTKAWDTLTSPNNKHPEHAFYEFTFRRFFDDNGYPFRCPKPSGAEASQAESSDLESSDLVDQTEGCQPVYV
Chain of Serine/threonine-protein kinase N2 (Homo sapiens) (Q16513 whole entry, looked up): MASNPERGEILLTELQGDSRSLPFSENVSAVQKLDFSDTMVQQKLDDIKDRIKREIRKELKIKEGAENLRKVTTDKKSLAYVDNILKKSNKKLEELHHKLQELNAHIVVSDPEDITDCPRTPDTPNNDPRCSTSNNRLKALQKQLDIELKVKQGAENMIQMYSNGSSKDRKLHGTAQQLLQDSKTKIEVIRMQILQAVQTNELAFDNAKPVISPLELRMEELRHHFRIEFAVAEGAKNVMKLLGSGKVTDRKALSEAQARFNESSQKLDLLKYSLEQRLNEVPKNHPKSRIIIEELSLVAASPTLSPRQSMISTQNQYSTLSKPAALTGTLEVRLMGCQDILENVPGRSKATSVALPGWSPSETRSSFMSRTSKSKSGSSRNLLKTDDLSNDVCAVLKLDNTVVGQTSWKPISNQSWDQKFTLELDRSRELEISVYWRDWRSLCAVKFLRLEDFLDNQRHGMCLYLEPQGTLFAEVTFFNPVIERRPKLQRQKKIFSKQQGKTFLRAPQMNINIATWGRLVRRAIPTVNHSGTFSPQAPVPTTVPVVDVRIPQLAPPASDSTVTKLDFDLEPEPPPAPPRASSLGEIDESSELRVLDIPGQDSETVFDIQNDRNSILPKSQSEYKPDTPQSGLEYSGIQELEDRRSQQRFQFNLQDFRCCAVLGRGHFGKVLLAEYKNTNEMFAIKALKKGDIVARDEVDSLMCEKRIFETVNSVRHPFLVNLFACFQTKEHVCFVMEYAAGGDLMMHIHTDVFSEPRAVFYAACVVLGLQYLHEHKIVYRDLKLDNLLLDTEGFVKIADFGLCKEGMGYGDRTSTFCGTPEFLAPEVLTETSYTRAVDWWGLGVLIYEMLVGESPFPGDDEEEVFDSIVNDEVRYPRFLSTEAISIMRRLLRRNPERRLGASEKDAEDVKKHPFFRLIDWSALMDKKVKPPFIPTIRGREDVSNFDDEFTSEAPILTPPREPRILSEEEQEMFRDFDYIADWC

Cc1c(NC(=O)c2cc(C(N)=O)nc3cc(F)ccc23)c(C(F)(F)F)nn1Cc1ccc(C(C)(C)C)cc1 [BAY-588]
inactive: residual activity [1] 100% | residual activity [2] 83% | residual activity [3] 100% | residual activity [4] 100% | residual activity [5] 100% | residual activity [6] 84% | residual activity [7] 82% | residual activity [8] 100% | residual activity [9] 100% | residual activity [10] 100% | residual activity [11] 100% | residual activity [12] 78% | residual activity [13] 98% | residual activity [14] 100% | residual activity [15] 79% | residual activity [16] 93% | residual activity [17] 100% | residual activity [18] 52% | residual activity [19] 100% | residual activity [20] 92% | residual activity [21] 98% | residual activity [22] 84% | residual activity [23] 100% | residual activity [24] 100% | residual activity [25] 91% | residual activity [26] 100% | residual activity [27] 100% | residual activity [28] 100% | residual activity [29] 80% | residual activity [30] 100% | residual activity [31] 78% | residual activity [32] 100% | residual activity [33] 97% | residual activity [34] 100% | residual activity [35] 92% | residual activity [36] 100% | residual activity [37] 87% | residual activity [38] 97% | residual activity [39] 100% | residual activity [40] 100% | residual activity [41] 100% | inhibition [42] -2.42% | inhibition [43] 13% | inhibition [44] 5.25% | inhibition [45] 24.1%

Cc1c(NC(=O)c2cc(C(N)=O)nc3cc(F)ccc23)c(C(F)(F)F)nn1Cc1ccc(C#N)cc1 [BAY-876]
inactive: residual activity [1] 97% | residual activity [2] 83% | residual activity [3] 91% | residual activity [4] 72% | residual activity [5] 64% | residual activity [6] 90% | residual activity [7] 86% | residual activity [8] 82% | residual activity [9] 95% | residual activity [10] 100% | residual activity [11] 100% | residual activity [12] 86% | residual activity [13] 90% | residual activity [14] 91% | residual activity [15] 88% | residual activity [16] 100% | residual activity [17] 92% | residual activity [18] 53% | residual activity [19] 88% | residual activity [20] 69% | residual activity [21] 64% | residual activity [22] 72% | residual activity [23] 88% | residual activity [24] 97% | residual activity [25] 90% | residual activity [26] 95% | residual activity [27] 91% | residual activity [28] 78% | residual activity [29] 91% | residual activity [30] 66% | residual activity [31] 94% | residual activity [32] 81% | residual activity [33] 95% | residual activity [34] 100% | residual activity [35] 95% | residual activity [36] 80% | residual activity [37] 100% | residual activity [38] 100% | residual activity [39] 81% | residual activity [40] 99% | residual activity [41] 94% | inhibition [42] 6.9% | inhibition [43] 29% | inhibition [44] -5.75% | inhibition [45] 21.7%
